{
  "source": "patent US20120070476A1",
  "about": "“Compositions and Methods for Inactivation of Pathogens at Genital Tract Surfaces” (priority 2009, published 2012)",
  "key": {"[1]": {"system": "BV-associated organisms", "assay": "Survival of BV-associated organisms after 2-hour exposure to racemic lactic acid", "assay_type": "cell-based, Eighteen BV-associated organisms", "settings": "pH 4.5, between 10 and 100 mM (~0.1-1%) lactic acid, 37° C., versus pH 4.5 without lactic acid", "description": "(§1) Eighteen BV-associated organisms, and four lactobacillus strains obtained from the American Type Culture Collection, Rockville Md., were grown in appropriate growth medium and incubation conditions, and exposed to a 2-hour further incubation at 37° C. in media at pH 7 without lactic acid, or at pH 4.5 with racemic lactic acid concentrations ranging from zero to 550 mM (5%). The number of organisms surviving exposure to these conditions is plotted in FIG. 4. BV-associated organisms are plotted with solid lines."}, "[2]": {"system": "lactobacilli", "assay": "Survival of lactobacillus strains after 2-hour exposure to lactic acid", "assay_type": "cell-based, four lactobacillus strains", "description": "as §1"}, "[3]": {"system": "Herpes simplex virus type 2 (HSV-2)", "assay": "Inactivation of cell-free HSV-2 by acidified exposure media, titred on Elvis cells", "assay_type": "cell-based", "settings": "0.1% acid, pH 3.8, 30 minutes, 37° C.", "description": "The effect of low pH alone, and low pH in the presence of racemic lactic acid, L-lactic acid, and D-lactic acid on the survival of Herpes simplex virus type 2 (HSV-2) was assessed. Cell-free HSV-2 (ATCC VR-734™ strain 9, American Type Culture Collection, Manassas, Va.) was aliquoted, stored at −80° C., and thawed immediately before its use. Elvis™ (Enzyme-linked Virus Inducible System™) cells (Diagnostic Hybrids, Athens Ohio) were supplied growing in flat-bottomed, 96-well microplates. Each plate was kept in a humidified incubator (5% CO2, 37° C.) until the cells were between 75% and 95% confluent. The supplier's original growth medium was replaced with fresh, pre-warmed tissue culture re-feeding medium (Trinity Biotech USA, Jamestown, N.Y.) several hours before the microplate was used in an experiment.\nViral exposure media were prepared by adding 0.1% D,L-lactic acid (Sigma-Aldrich, St. Louis, Mo.), D-lactic acid (Bachem Bioscience Inc., King of Prussia, Pa.), L-lactic acid, (Sigma-Aldrich, St. Louis, Mo.), acetic acid (Sigma-Aldrich) or no acid to 0.9% NaCl in deionized water. The pH of the solutions was measured and adjusted as necessary before, during, and after the experiments using an MI-410 combination pH electrode (Microelectrodes Inc., Bedford, N.H.) to pH 3.8 for all of the organic acid-containing viral exposure media. Two viral exposure media not containing an organic acid were adjusted to pH 3.8 with HCl, or to pH 7.4 with dilute NaOH. Freshly thawed viral stock was diluted 1:10 with viral exposure media and incubated for 30 minutes at 37° C. At the end of the incubation, all media were diluted ten-fold with re-feeding medium to rapidly neutralize the acidity of those media that were acidic. Three-fold serial dilutions were then made with the same growth medium. Each dilution of virus was then inoculated into two replicate wells on a microplate of Elvis™ cells. The microplate was spun at […], 25° C. for 25 minutes and incubated in a humidified incubator (5% CO2, 37° C.) for 16-24 hours. The growth medium was removed from the microplate wells, and the Elvis™ cells were fixed and stained according to the manufacturer's instructions. The microplate wells were examined on an inverted microscope for the presence of blue-stained cells, indicating viral infection."}, "[4]": {"system": "Herpes simplex virus type-1 (HSV-1)", "assay": "Inactivation of HSV-1 (KOS strain) by acidified exposure media", "assay_type": "cell-based", "settings": "0.1%, pH 3.8, 30-minute exposure"}, "[5]": {"system": "HeLa cells", "protocol": "The toxicity of D-lactic acid and of L-lactic acid were assessed on tissue culture monolayers using a well known cell viability assay. HeLa cells (ATCC CCL-2, a cell line derived from a cervical epithelial cancer) were grown in 96-well tissue culture plates to approximately 90% confluence in DMEM medium supplemented with 3% fetal bovine serum. Medium was removed from the wells, and replaced by the same medium now containing D- or L-lactic acid between concentrations of 0% and 1% (w/v). The plates were incubated for 30 minutes at 37° C. and 5% CO2. The wells were washed three times with 0.9% saline, and then 20 microliters of a tetrazolium viability stain (Promega CellTiter 9603 One Solution) was added. After 1 hour, the absorbance of the fluid in the wells was read with a spectrophotometer at a wavelength of 575 nanometers."}, "[6]": {"system": "M. mulieris, M. curtisii, Mycoplasma hominus", "assay": "Inactivation of three BV-associated organisms by L-lactic acid", "assay_type": "cell-based, Mobiluncus mulieris, Mobiluncus curtisii", "settings": "pH 4.5, 2-hour, 37° C.", "description": "as §1"}},
  "data": [
    {"smiles": "CC(O)C(=O)O", "note": "(racemic) [racemic lactic acid, D,L-lactic acid, reference compound]", "values": [
      {"measurement": "Inactivation of BV-associated organisms (in words)", "setting": "[1]", "value": "dramatically increased"},
      {"measurement": "Survival of lactobacilli (in words)", "setting": "[2]; pH 4.5, highest concentration tested (5% or ~550 millimolar), 2-hour, 37° C.", "value": "survived unaltered"}
    ]},
    {"smiles": "C[C@@H](O)C(=O)O", "note": "[D-lactic acid, reference compound]", "values": [
      {"measurement": "HSV-2 inactivation beyond low pH without organic acids (in words)", "setting": "[3]", "value": "further reduced HSV-2 viability"}
    ]},
    {"smiles": "C[C@H](O)C(=O)O", "note": "[L-lactic acid]", "values": [
      {"measurement": "HSV-1 inactivation, greater than D-lactic acid at pH 3.8", "setting": "[4]", "value": "approximately 10 fold"},
      {"measurement": "HSV-1 inactivation, more than at pH 3.8 without lactic acid", "setting": "[4]", "value": "~25", "unit": "fold"},
      {"measurement": "HSV-1 inactivation, more than the control at pH 7.4 without lactic acid", "setting": "[4]", "value": "approximately 80 fold"},
      {"measurement": "HSV-2 inactivation beyond low pH without organic acids (in words)", "setting": "[3]", "value": "further reduced HSV-2 viability"},
      {"measurement": "reduction of HSV-2 viability, more than low pH with D-lactic acid", "setting": "[3]", "value": "approximately 5 fold"},
      {"measurement": "reduction of HSV-2 viability, more than low pH without lactic acid", "setting": "[3]", "value": "approximately 11 fold"},
      {"measurement": "shift of dose-response for cellular cytotoxicity relative to D-lactic acid", "setting": "[5]", "value": "more than 500 fold"},
      {"measurement": "Inactivation of all three organisms at pH 4.5 with L-lactic acid versus pH 4.5 without lactic acid (in words)", "setting": "[6]", "value": "substantially greater"},
      {"measurement": "concentration not harmful to lactobacilli", "setting": "[2]; pH 4.5, inferred from 550 mM racemic lactic acid being 50% L-lactic acid", "value": "up to 280 mM"}
    ]},
    {"smiles": "CC(=O)O", "note": "[acetic acid, reference compound]", "values": [
      {"measurement": "HSV-2 inactivation beyond low pH without organic acids (in words)", "setting": "[3]", "value": "did not increase the degree of inactivation"}
    ]}
  ]
}
